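Grown in 96-well plates, cells were treated for 48 hours with each compound at five concentrations. Insufficient inhibition: endpoint recorded as highest concentration tested. GI50 = concentration required for 50% inhibition of growth.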 The source made the active and inactive calls. Rule as the data show it: active = GI50 up to about 1.1 µM and inactive = higher.
How the values were obtained:
Assay in all cases: growth of human tumour cells (NCI), 48 h
[1] = tested on: 786-0
[2] = tested on: A498
[3] = tested on: A549
[4] = tested on: ACHN
[5] = tested on: BT-549
[6] = tested on: CAKI-1
[7] = tested on: CCRF-CEM
[8] = tested on: COLO 205
[9] = tested on: DU-145
[10] = tested on: EKVX
[11] = tested on: HCT-116
[12] = tested on: HCT-15
[13] = tested on: HL-60
[14] = tested on: HOP-62
[15] = tested on: HT-29
[16] = tested on: Hs-578T
[17] = tested on: IGROV-1
[18] = tested on: K562
[19] = tested on: KM12
[20] = tested on: LOX IMVI
[21] = tested on: M14
[22] = tested on: MCF7
[23] = tested on: MDA-MB-231
[24] = tested on: MDA-MB-435
[25] = tested on: MDA-N
[26] = tested on: MOLT-4
[27] = tested on: Malme-3M
[28] = tested on: NCI-H226
[29] = tested on: NCI-H23
[30] = tested on: NCI-H522
[31] = tested on: NCI/ADR-RES
[32] = tested on: OVCAR-3
[33] = tested on: OVCAR-4
[34] = tested on: OVCAR-5
[35] = tested on: OVCAR-8
[36] = tested on: PC-3
[37] = tested on: RPMI-8226
[38] = tested on: RXF 393
[39] = tested on: SF-268
[40] = tested on: SF-295
[41] = tested on: SK-MEL-28
[42] = tested on: SK-MEL-2
[43] = tested on: SK-MEL-5
[44] = tested on: SK-OV-3
[45] = tested on: SN12C
[46] = tested on: SNB-19
[47] = tested on: SNB-75
[48] = tested on: SR
[49] = tested on: SW-620
[50] = tested on: T47D
[51] = tested on: TK-10
[52] = tested on: U-251
[53] = tested on: UACC-257
[54] = tested on: UACC-62
[55] = tested on: UO-31
[56] = tested on: HCC 2998
[57] = tested on: NCI-H460
[58] = tested on: HOP-92
[59] = tested on: SF-539

## O=CN1CCN(CC(O)CN2CCCCC2)CC1 (configuration not stated)
[1]
  GI50: > 100 µM (inactive)
[2]
  GI50: > 100 µM (inactive)
[3]
  GI50: > 100 µM (inactive)
[4]
  GI50: > 100 µM (inactive)
[5]
  GI50: > 100 µM (inactive)
[6]
  GI50: > 100 µM (inactive)
[7]
  GI50: > 100 µM (inactive)
[8]
  GI50: > 100 µM (inactive)
[9]
  GI50: > 100 µM (inactive)
[10]
  GI50: > 100 µM (inactive)
[11]
  GI50: > 100 µM (inactive)
[12]
  GI50: > 100 µM
[13]
  GI50: > 100 µM (inactive)
[14]
  GI50: > 100 µM (inactive)
[15]
  GI50: > 100 µM (inactive)
[16]
  GI50: > 100 µM (inactive)
[17]
  GI50: > 100 µM (inactive)
[18]
  GI50: > 100 µM (inactive)
[19]
  GI50: > 100 µM (inactive)
[20]
  GI50: > 100 µM (inactive)
[21]
  GI50: > 100 µM (inactive)
[22]
  GI50: > 100 µM (inactive)
[23]
  GI50: > 100 µM (inactive)
[24]
  GI50: > 100 µM (inactive)
[25]
  GI50: > 100 µM (inactive)
[26]
  GI50: > 100 µM (inactive)
[27]
  GI50: > 100 µM (inactive)
[28]
  GI50: > 100 µM (inactive)
[29]
  GI50: > 100 µM (inactive)
[30]
  GI50: > 100 µM (inactive)
[31]
  GI50: > 100 µM (inactive)
[32]
  GI50: > 100 µM (inactive)
[33]
  GI50: > 100 µM (inactive)
[34]
  GI50: > 100 µM (inactive)
[35]
  GI50: > 100 µM (inactive)
[36]
  GI50: > 100 µM (inactive)
[37]
  GI50: > 100 µM (inactive)
[38]
  GI50: > 100 µM (inactive)
[39]
  GI50: > 100 µM (inactive)
[40]
  GI50: > 100 µM (inactive)
[41]
  GI50: > 100 µM (inactive)
[42]
  GI50: > 100 µM (inactive)
[43]
  GI50: > 100 µM (inactive)
[44]
  GI50: > 100 µM (inactive)
[45]
  GI50: > 100 µM (inactive)
[46]
  GI50: > 100 µM (inactive)
[47]
  GI50: > 100 µM (inactive)
[48]
  GI50: > 100 µM (inactive)
[49]
  GI50: > 100 µM (inactive)
[50]
  GI50: > 100 µM (inactive)
[51]
  GI50: > 100 µM (inactive)
[52]
  GI50: > 100 µM (inactive)
[53]
  GI50: > 100 µM (inactive)
[54]
  GI50: > 100 µM (inactive)
[55]
  GI50: > 100 µM (inactive)

## CCOC(=O)CNC1=Nc2ccccc2C(=O)N2CSCC12 (configuration not stated)
[1]
  GI50: > 100 µM (inactive)
[2]
  GI50: > 100 µM (inactive)
[3]
  GI50: > 100 µM (inactive)
[4]
  GI50: > 100 µM (inactive)
[5]
  GI50: > 100 µM (inactive)
[6]
  GI50: > 100 µM (inactive)
[7]
  GI50: > 100 µM (inactive)
[8]
  GI50: > 100 µM (inactive)
[9]
  GI50: > 100 µM (inactive)
[10]
  GI50: > 100 µM (inactive)
[56]
  GI50: > 100 µM (inactive)
[11]
  GI50: > 100 µM (inactive)
[12]
  GI50: > 100 µM
[14]
  GI50: > 100 µM (inactive)
[15]
  GI50: > 100 µM (inactive)
[16]
  GI50: > 100 µM (inactive)
[17]
  GI50: > 100 µM (inactive)
[18]
  GI50: > 100 µM (inactive)
[19]
  GI50: > 100 µM (inactive)
[20]
  GI50: > 100 µM (inactive)
[21]
  GI50: > 100 µM (inactive)
[22]
  GI50: > 100 µM (inactive)
[23]
  GI50: > 100 µM (inactive)
[24]
  GI50: > 100 µM (inactive)
[25]
  GI50: > 100 µM (inactive)
[26]
  GI50: > 100 µM (inactive)
[27]
  GI50: > 100 µM (inactive)
[28]
  GI50: > 100 µM (inactive)
[57]
  GI50: > 100 µM (inactive)
[30]
  GI50: > 100 µM (inactive)
[31]
  GI50: > 100 µM (inactive)
[32]
  GI50: > 100 µM (inactive)
[33]
  GI50: > 100 µM (inactive)
[34]
  GI50: > 100 µM (inactive)
[35]
  GI50: > 100 µM (inactive)
[36]
  GI50: > 100 µM (inactive)
[37]
  GI50: > 100 µM (inactive)
[38]
  GI50: > 100 µM (inactive)
[39]
  GI50: > 100 µM (inactive)
[40]
  GI50: > 100 µM (inactive)
[41]
  GI50: > 100 µM (inactive)
[42]
  GI50: > 100 µM (inactive)
[43]
  GI50: > 100 µM (inactive)
[44]
  GI50: > 100 µM (inactive)
[45]
  GI50: > 100 µM (inactive)
[46]
  GI50: > 100 µM (inactive)
[47]
  GI50: > 100 µM (inactive)
[48]
  GI50: > 100 µM (inactive)
[49]
  GI50: > 100 µM (inactive)
[50]
  GI50: > 100 µM (inactive)
[51]
  GI50: > 100 µM (inactive)
[52]
  GI50: > 100 µM (inactive)
[53]
  GI50: > 100 µM (inactive)
[54]
  GI50: > 100 µM (inactive)
[55]
  GI50: > 100 µM (inactive)

## Cc1ccnc(NC(NC(=O)c2ccccc2)(C(F)(F)F)C(F)(F)F)c1
[1]
  GI50: > 100 µM (inactive)
[3]
  GI50: > 100 µM (inactive)
[4]
  GI50: > 100 µM (inactive)
[5]
  GI50: > 100 µM (inactive)
[6]
  GI50: > 100 µM (inactive)
[7]
  GI50: 75.9 µM (inactive)
[8]
  GI50: > 100 µM (inactive)
[9]
  GI50: > 100 µM (inactive)
[10]
  GI50: > 100 µM (inactive)
[56]
  GI50: > 100 µM (inactive)
[11]
  GI50: > 100 µM (inactive)
[12]
  GI50: > 100 µM
[13]
  GI50: > 100 µM (inactive)
[14]
  GI50: > 100 µM (inactive)
[58]
  GI50: > 100 µM (inactive)
[15]
  GI50: > 100 µM (inactive)
[16]
  GI50: > 100 µM (inactive)
[17]
  GI50: > 100 µM (inactive)
[18]
  GI50: > 100 µM (inactive)
[19]
  GI50: > 100 µM (inactive)
[20]
  GI50: > 100 µM (inactive)
[21]
  GI50: > 100 µM (inactive)
[22]
  GI50: > 100 µM (inactive)
[23]
  GI50: > 100 µM (inactive)
[24]
  GI50: > 100 µM (inactive)
[25]
  GI50: > 100 µM (inactive)
[26]
  GI50: > 100 µM (inactive)
[27]
  GI50: > 100 µM (inactive)
[28]
  GI50: > 100 µM (inactive)
[29]
  GI50: > 100 µM (inactive)
[30]
  GI50: > 100 µM (inactive)
[31]
  GI50: > 100 µM (inactive)
[32]
  GI50: > 100 µM (inactive)
[33]
  GI50: > 100 µM (inactive)
[34]
  GI50: > 100 µM (inactive)
[35]
  GI50: > 100 µM (inactive)
[36]
  GI50: > 100 µM (inactive)
[37]
  GI50: 18.2 µM (inactive)
[38]
  GI50: > 100 µM (inactive)
[39]
  GI50: > 100 µM (inactive)
[40]
  GI50: > 100 µM (inactive)
[59]
  GI50: > 100 µM (inactive)
[41]
  GI50: > 100 µM (inactive)
[42]
  GI50: > 100 µM (inactive)
[43]
  GI50: > 100 µM (inactive)
[44]
  GI50: > 100 µM (inactive)
[45]
  GI50: > 100 µM (inactive)
[46]
  GI50: > 100 µM (inactive)
[47]
  GI50: > 100 µM (inactive)
[48]
  GI50: 41.1 µM (inactive)
[49]
  GI50: > 100 µM (inactive)
[50]
  GI50: > 100 µM (inactive)
[51]
  GI50: > 100 µM (inactive)
[52]
  GI50: > 100 µM (inactive)
[53]
  GI50: > 100 µM (inactive)
[54]
  GI50: > 100 µM (inactive)
[55]
  GI50: > 100 µM (inactive)

Source: ChEMBL document CHEMBL1201862, “PubChem BioAssay data set” (2004)
